Experimental data as given in publication PMC8838898, “Identification of Novel Cannabinoid CB2 Receptor Agonists from Botanical Compounds and Preliminary Evaluation of Their Anti-Osteoporotic Effects” (Molecules, 2022).

Columns and labels:
[1] = biological target: T1, CB2R (Homo sapiens, UniProt P34972); assay: double luciferase reporter screening system in HEK293-CB2 cells; format: cell-based; conditions: 1 μM, 6-h treatment
T1 construct: expressed in transfected cells; host or cells: HEK293 cells stably transfected with pIRES2-EGFP-CB2, pGL4.29 [luc2P/CRE/Hygro] and pRL-TK
T1 sequence (P34972 whole entry): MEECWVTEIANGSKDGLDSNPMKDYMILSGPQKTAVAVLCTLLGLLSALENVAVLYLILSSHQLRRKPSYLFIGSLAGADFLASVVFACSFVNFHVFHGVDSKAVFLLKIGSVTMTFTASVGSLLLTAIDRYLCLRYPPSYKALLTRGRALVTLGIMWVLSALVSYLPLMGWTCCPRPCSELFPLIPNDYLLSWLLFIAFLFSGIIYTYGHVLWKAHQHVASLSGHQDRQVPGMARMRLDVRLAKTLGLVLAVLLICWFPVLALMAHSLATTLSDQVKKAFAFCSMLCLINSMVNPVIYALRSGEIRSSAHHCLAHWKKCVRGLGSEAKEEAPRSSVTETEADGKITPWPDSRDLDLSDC
Method: To generate the HEK293-CB2 cells, 5 × 10^5 HEK293 cells were cultured in a 60 mm culture dish for 12 h, washed with PBS, and then transfected with Lipofectamine 3000 reagent containing a test reporter plasmid, control reporter plasmid encoding Renilla luciferase, and effector plasmid. The ratio of the transfection plasmid pIRES2-EGFP-CB2, pGL4.29 [luc2P/CRE/Hygro], and pRL-TK was 2 μg, 10 μg, and 1μg, respectively. After a 24-htransfection, cells were selected and cultured in the medium containing G418 (800 μg·mL^−1) and hygromycin (400 μg·mL^−1) for two weeks. The surviving cells were picked and expanded as HEK293-CB2R cells.
Several aspects of the high-throughput screening system were optimized to ensure efficient and accurate application of the system for high-throughput data collection. To conduct high-throughput assays in 96-well plates, the number of cells seeded per well, incubation time, drug and AM630 concentrations, and the DMSO content were optimized. The dual luciferase assay was performed as described previously. […] Subsequently, the quantitative evaluation indexes of the high-throughput screening system, including the signal-to-background ratio, S/B = Msignal/Mbackground; signal window, SW = Msignal − Mbackground; signal-to-noise ratio, S/N = (Msignal − Mbackground)/SDbackground; signal background coefficient of variation, CV(%) = 100 × SDsignal/Msignal; and Z’ factor were determined to ensure its efficient and accurate application of the system in high-throughput data collection. Here, Z′ = 1 − 3(SDsignal + SDbackground)/|Msignal − Mbackground| [25], where M represents an average of the relative luminescence value and SD is the standard deviation of M.
The HEK293-CB2 cells from 10–40 passages were separately inoculated into 96-well plates at 5 × 10^3 cells per well. […] The results were expressed as relative luminescence values.
The HEK293-CB2 cells were inoculated on a 96-well culture plate with a density of 5 × 10^3 cells per well. […] The relative luminescence value was used to express the expression of CB2R.
Furthermore, the activation of the compounds on CB2R was also verified by using the CB2R inverse agonist AM630. The HEK293-CB2 cells were inoculated on a 6-well culture plate at a density of 5 × 10^4 cells per well. […] The expression of the CB2R gene is expressed by the relative luminescence value.

[2] = system: RAW264.7 macrophages; assay: viability of RAW264.7 macrophages (CCK8); format: cell-based, murine; conditions: 1 μM, three days
Method: The murine macrophage RAW264.7 cell line, which has the potential to differentiate into osteoclasts under the induction of RANKL, was obtained from the Cell Bank of the Chinese Academy of Sciences (Shanghai, China). The cells were cultured in DMEM containing 10% (v/v), 1% (v/v) penicillin, and streptomycin (Beyotime, Shanghai, China) at 37 °C in humidified air with 5% CO2, and then subcultured every two days. For induction of the osteoclasts, RAW264.7 cells were incubated with 25 ng·mL^−1 RANKL for 72 h. Osteoclasts were identified by TRAP staining.
RAW264.7 cells were inoculated in a 96-well plate at a density of 1 × 10^4 cells per well. After a 24-h culture at 37 °C, cells were treated with the test compounds for 48 h and cell viability was determined with the CCK-8 kit according to the instructions. RAW264.7 cells were inoculated on a 96-well culture plate at a density of 1 × 10^4 cells per well, induced with […] of nuclear factor-κB receptor activator ligand (RANKL) to differentiate into osteoclasts for 72 h. […] The reaction was terminated with 1 mol·L^−1 of NaOH solution (100 μL per well) and the absorbance was determined at a wavelength of 405 nm. […]

[3] = system: osteoclasts derived from RAW264.7 cells; assay: F-actin ring formation assay in osteoclasts; format: cell-based, murine
Method: RAW264.7 cells were incubated in a confocal culture dish (diameter, 35 mm) at adensity of 5 × 10^4 cells·dish^−1 for 24 h, treated with 25 ng·mL^−1 RANKL and the screened compounds for five days, fixed with 4% paraformaldehyde for 30 min, stained with 5 μg·mL^−1 rhodamine-conjugated phalloidin (Sigma-Aldrich Chemical Co.) at 37 °C for 40 min, washed with PBS again, and stained again with 4′,6-diamidino-2-phenylindole (DAPI, Beyotime, Shanghai, China) for 10 min at room temperature (Li et al., 2018). The F-actin ring of the osteoclasts was observed under a fluorescent microscope (Axiovert 200, Carl Zeiss, Oberkochen, Germany). The fluorescence images of the cells were processed using Zeiss ZEN software.

Structure (SMILES): CCCCCCC(C)(C)c1cc(OC)c([C@@H]2C=C(CO)[C@@H]3C[C@H]2C3(C)C)c(OC)c1 [HU308]
- luciferase activity of HEK293-CB2 cells of passages 10, 15, 25, 35 and 40 [1]: significantly increased
- viability of RAW264.7 macrophages [2]: had no inhibitory effects on the viability
- reversal of the F-actin ring effect by AM630 ([3]; 1 μM AM630): could also be reversed by AM630
- formation of the F-actin ring in osteoclasts ([3]; five-day treatment, phalloidin staining): decreased the formation of the F-actin ring
